Reference: patent publication US11407711B2, “Benzamide compound and use thereof” (METISA BIOTECHNOLOGY CO., LTD., priority 2018, dated 2022)
Read-outs that look alike come from different tables or passages of the source.

What was measured:
Assay type in all cases: in vivo
armyworm = assay: Insecticidal activity against armyworm (Airbrush spray on maize blade segments); conditions: 72 h, read-out: fatality rate against armyworm
Method: (§1) The compound to be tested was dissolved by a mixed solvent of acetone/methanol (1:1), and then diluted by water containing 0.1% (wt) Tween 80 to the required concentration.
(§2) An Airbrush spray method was adopted for the determination of the activity, with armyworm, Plutella xylostella and Chilo suppressalis as targets.
Determination method: maize blades were cut into 2 cm (length) segments; with the pressure of Airbrush spray being 10 psi (about 0.7 kg/cm^2), both sides of each blade segment were sprayed with the amount of 0.5 ml. After dried in the shade, each segment was inoculated with 10 3rd-instar larvaes, 3 repeats for each segment. And then, the treated segments were put into an observation room (25° C., relative humidity: 60-70%) for cultivation; the number of the survivals was surveyed 1 d, 2 d and 3 d after administration, and then the death rate was calculated.

Plutella xylostella = assay: Insecticidal activity against Plutella xylostella (Airbrush spray on cabbage leaf discs)
Method: as §1, §2
Determination method: cabbage blades were punched into 2 cm (diameter) leaf discs by a puncher; with the pressure of Airbrush spray being 10 psi (about 0.7 kg/cm^2), both sides of each leaf disc were sprayed with the amount of 0.5 ml. After dried in the shade, each leaf disc was inoculated with 10 3rd-instar larvaes, 3 repeats for each leaf disc. And then, the treated leaf discs were put into an observation room (25° C., relative humidity: 60-70%) for cultivation; the number of the survivals was surveyed 1 d, 2 d and 3 d after administration, and then the death rate was calculated.

Chilo suppressalis = assay: Insecticidal activity against Chilo suppressalis (spray on rice seedlings, stems fed to larvae); conditions: for pest or weed control at 1 µg/mL / pest or weed control at 4 µg/mL / pest or weed control at 40 µg/mL: Chilo suppressalis, 72 h, read-out: fatality rate against Chilo suppressalis
Method: as §1, §2
Determination method: 1) preparation of rice seedlings: rice was cultivated in small plastic cups (diameter: 4.5 cm and height: 4 cm) at a constant temperature room (temperature: 26-28° C., relative humidity: 60-80% around and illumination: 16 hL:8 hD), after the rice grew to a 4-5 leaf stage, vigorous and uniform-growth rice seedlings were selected and treated with an insecticide, 3 repeats for each treatment. 2) Preparation of pests for test: 3rd-instar larvaes of Chilo suppressalis fed continuously in the room. 3) Inoculation of pests on rice stems by spray. The whole plants of the rice seedlings were sprayed by a spray method uniformly, with the dose of 15 ml for each treatment. The blank control was treated first, and the above operation was repeated in an order of lower to higher test concentration. After sprayed, rice seedlings were placed in the shade to dry the insecticide liquor, and then stalks about 5 cm above the basal part of the stems were cut to be fed to the pests for test. Glass petri dishes (diameter: […]) were prepared, cushioned by filter paper at the bottom thereof, and subjected to water addition for moisturizing; about 20 pieces of rice stems were put in each dish and inoculated with 10 larvaes; then the petri dishes were closed by non-woven fabrics and placed in a constant temperature room for culture. The number of survivals was surveyed 3 d after administration.

[1] = 0.05 mg/L, 3 d after administration, 3rd-instar larvae
[2] = 0.1 mg/L, 3 d after administration, 3rd-instar larvae
[3] = 0.5 mg/L, 3 d after administration, 3rd-instar larvae
[4] = Plutella xylostella, foliar, 72 h, 0.5 mg/L, 3 d after administration, read-out: fatality rate against Plutella xylostella
[5] = Plutella xylostella, foliar, 72 h, 1 mg/L, 3 d after administration, read-out: fatality rate against Plutella xylostella
[6] = Plutella xylostella, foliar, 72 h, Table 71, 10 mg/L, 3 d after administration, read-out: Fatality rate (%, 3 d after administration) 10 mg/L
[7] = Plutella xylostella, foliar, 72 h, Table 73, 0.5 mg/L, 3 d after administration, read-out: Fatality rate (%, 3 d after administration) 0.5 mg/L
[8] = Plutella xylostella, foliar, 72 h, Table 73, 1 mg/L, 3 d after administration, read-out: Fatality rate (%, 3 d after administration) 1 mg/L
[9] = 1 mg/L, survivals surveyed 3 d after administration
[10] = 4 mg/L, survivals surveyed 3 d after administration
[11] = 40 mg/L, survivals surveyed 3 d after administration
[12] = Plutella xylostella, foliar, 72 h, read-out: Fatality rate (%, 3 d after administration) 0.5 mg/L, Table 73, 0.5 mg/L, 3 d after administration
[13] = Plutella xylostella, foliar, 72 h, read-out: Fatality rate (%, 3 d after administration) 1 mg/L, Table 73, 1 mg/L, 3 d after administration
[14] = Plutella xylostella, foliar, 72 h, read-out: Fatality rate (%, 3 d after administration) 10 mg/L, Table 71, 10 mg/L, 3 d after administration
[15] = Plutella xylostella, foliar, 72 h, read-out: fatality rate against Plutella xylostella, 0.5 mg/L, 3 d after administration
[16] = Plutella xylostella, foliar, 72 h, read-out: fatality rate against Plutella xylostella, 1 mg/L, 3 d after administration
[17] = Table 75, fast-acting efficacy, dose 0.5 mg/L
[18] = Table 76, fast-acting efficacy, dose 0.05 mg/L

## N#CCN(C(=O)c1ccc(C#N)cc1)c1cccc(C(=O)Nc2c(Br)cc(C(F)(C(F)(F)F)C(F)(F)F)cc2Br)c1F [Compound 2.17]
armyworm; [1]
  pest or weed control at 0.05 µg/mL: ≥ 90%
armyworm; [2]
  pest or weed control at 0.1 µg/mL: ≥ 90%
armyworm; [3]
  pest or weed control at 0.5 µg/mL: ≥ 90%
Plutella xylostella; [4]
  pest or weed control at 0.5 µg/mL: ≥ 90%
Plutella xylostella; [5]
  pest or weed control at 1 µg/mL: ≥ 90%
Plutella xylostella; [6]
  pest or weed control at 10 µg/mL: 100%
Plutella xylostella; [7]
  pest or weed control at 0.5 µg/mL: 100%
Plutella xylostella; [8]
  pest or weed control at 1 µg/mL: 100%
Chilo suppressalis; [9]
  pest or weed control at 1 µg/mL: ≥ 90%
Chilo suppressalis; [10]
  pest or weed control at 4 µg/mL: ≥ 90%
Chilo suppressalis; [11]
  pest or weed control at 40 µg/mL: ≥ 90%

## N#CCN(C(=O)c1ccc(C(F)(F)F)cc1)c1cccc(C(=O)Nc2c(Br)cc(C(F)(C(F)(F)F)C(F)(F)F)cc2Br)c1F [Compound 2.43]
armyworm; [1]
  pest or weed control at 0.05 µg/mL: ≥ 90%
armyworm; [2]
  pest or weed control at 0.1 µg/mL: ≥ 90%
armyworm; [3]
  pest or weed control at 0.5 µg/mL: ≥ 90%
Plutella xylostella; [4]
  pest or weed control at 0.5 µg/mL: ≥ 90%
Plutella xylostella; [5]
  pest or weed control at 1 µg/mL: ≥ 90%
Plutella xylostella; [6]
  pest or weed control at 10 µg/mL: 100%
Plutella xylostella; [7]
  pest or weed control at 0.5 µg/mL: 100%
Plutella xylostella; [8]
  pest or weed control at 1 µg/mL: 100%
Chilo suppressalis; [9]
  pest or weed control at 1 µg/mL: ≥ 90%
Chilo suppressalis; [10]
  pest or weed control at 4 µg/mL: ≥ 90%
Chilo suppressalis; [11]
  pest or weed control at 40 µg/mL: ≥ 90%

## N#CCN(C(=O)c1ccccc1)c1cccc(C(=O)Nc2c(Br)cc(C(F)(C(F)(F)F)C(F)(F)F)cc2Br)c1F [Compound 2.321]
armyworm
  pest or weed control at 0.05 µg/mL: ≥ 90%
  pest or weed control at 0.1 µg/mL: ≥ 90%
  pest or weed control at 0.5 µg/mL: ≥ 90%
Plutella xylostella; [12]
  pest or weed control at 0.5 µg/mL: 100%
Plutella xylostella; [13]
  pest or weed control at 1 µg/mL: 100%
Plutella xylostella; [14]
  pest or weed control at 10 µg/mL: 100%
Plutella xylostella; [15]
  pest or weed control at 0.5 µg/mL: ≥ 90%
Plutella xylostella; [16]
  pest or weed control at 1 µg/mL: ≥ 90%
Plutella xylostella; [17]
  Fatality rate (%) 1 d after administration: 80%
  Fatality rate (%) 2 d after administration: 95%
Plutella xylostella; Table 75, fast-acting efficacy, dose 0.5 mg/L, 3 d after administration
  Fatality rate (%) 3 d after administration: 100%
Chilo suppressalis
  pest or weed control at 1 µg/mL: ≥ 90%
  pest or weed control at 4 µg/mL: ≥ 90%
  pest or weed control at 40 µg/mL: ≥ 90%
Chilo suppressalis; Table 77, 1.25 mg/L, 3 d after administration
  Fatality rate (%, 3 d after administration) 1.25 mg/L: 95.5%
Chilo suppressalis; Table 77, 2.5 mg/L, 3 d after administration
  Fatality rate (%, 3 d after administration) 2.5 mg/L: 100%
Chilo suppressalis; Table 77, 5 mg/L, 3 d after administration
  Fatality rate (%, 3 d after administration) 5 mg/L: 100%

## N#CCN(C(=O)c1ccccc1)c1cccc(C(=O)Nc2c(Cl)cc(C(F)(C(F)(F)F)C(F)(F)F)cc2Cl)c1F [Compound 3.321]
armyworm
  pest or weed control at 0.1 µg/mL: ≥ 90%
  pest or weed control at 0.5 µg/mL: ≥ 90%
Plutella xylostella; [14]
  pest or weed control at 10 µg/mL: 100%
Plutella xylostella; [16]
  pest or weed control at 1 µg/mL: ≥ 90%
Chilo suppressalis
  pest or weed control at 4 µg/mL: ≥ 90%
  pest or weed control at 40 µg/mL: ≥ 90%

## Cc1cc(C(F)(C(F)(F)F)C(F)(F)F)cc(Br)c1NC(=O)c1cccc(N(CC#N)C(=O)c2ccccc2)c1F [Compound 6.321]
armyworm
  pest or weed control at 0.5 µg/mL: ≥ 90%
Plutella xylostella; Plutella xylostella, foliar, 72 h, read-out: Fatality rate (%, 3 d after administration) 1 mg/L, Table 72, 1 mg/L, 3 d after administration
  pest or weed control at 1 µg/mL: 98.5%
Plutella xylostella; [14]
  pest or weed control at 10 µg/mL: 100%
Plutella xylostella; [16]
  pest or weed control at 1 µg/mL: ≥ 90%
Plutella xylostella; Table 72, 5 mg/L, 3 d after administration
  Fatality rate (%, 3 d after administration) 5 mg/L: 100%
Chilo suppressalis
  pest or weed control at 40 µg/mL: ≥ 90%

## N#CCN(C(=O)c1ccccc1)c1cccc(C(=O)Nc2c(Cl)cc(C(F)(C(F)(F)F)C(F)(F)F)cc2Br)c1F [Compound 7.321]
armyworm
  pest or weed control at 0.1 µg/mL: ≥ 90%
  pest or weed control at 0.5 µg/mL: ≥ 90%
Plutella xylostella; [14]
  pest or weed control at 10 µg/mL: 100%
Plutella xylostella; [16]
  pest or weed control at 1 µg/mL: ≥ 90%
Chilo suppressalis
  pest or weed control at 4 µg/mL: ≥ 90%
  pest or weed control at 40 µg/mL: ≥ 90%

## N#CCN(C(=O)c1ccccc1)c1cccc(C(=O)Nc2c(Br)cc(C(F)(C(F)(F)F)C(F)(F)F)cc2I)c1F [Compound 8.321]
armyworm
  pest or weed control at 0.1 µg/mL: ≥ 90%
  pest or weed control at 0.5 µg/mL: ≥ 90%
Plutella xylostella; [14]
  pest or weed control at 10 µg/mL: 100%
Plutella xylostella; [16]
  pest or weed control at 1 µg/mL: ≥ 90%
Chilo suppressalis
  pest or weed control at 4 µg/mL: ≥ 90%
  pest or weed control at 40 µg/mL: ≥ 90%

## N#CCN(C(=O)c1ccccc1)c1cccc(C(=O)Nc2c(Br)cc(C(F)(C(F)(F)F)C(F)(F)F)cc2C(F)(F)F)c1F [Compound 9.321]
armyworm
  pest or weed control at 0.05 µg/mL: ≥ 90%
  pest or weed control at 0.1 µg/mL: ≥ 90%
  pest or weed control at 0.5 µg/mL: ≥ 90%
Plutella xylostella; Plutella xylostella, foliar, 72 h, read-out: Fatality rate (%, 3 d after administration) 0.5 mg/L, Table 74, 0.5 mg/L, 3 d after administration
  pest or weed control at 0.5 µg/mL: 100%
Plutella xylostella; [14]
  pest or weed control at 10 µg/mL: 100%
Plutella xylostella; Plutella xylostella, foliar, 72 h, read-out: fatality rate against Plutella xylostella, 0.05 mg/L, 3 d after administration
  pest or weed control at 0.05 µg/mL: ≥ 90%
Plutella xylostella; [15]
  pest or weed control at 0.5 µg/mL: ≥ 90%
Plutella xylostella; [16]
  pest or weed control at 1 µg/mL: ≥ 90%
Plutella xylostella; Table 74, 0.05 mg/L, 3 d after administration
  Fatality rate (%, 3 d after administration) 0.05 mg/L: 100%
Plutella xylostella; [18]
  Fatality rate (%) 1 d after administration: 70%
  Fatality rate (%) 2 d after administration: 95%
Plutella xylostella; Table 76, fast-acting efficacy, dose 0.05 mg/L, 3 d after administration
  Fatality rate (%) 3 d after administration: 100%
Chilo suppressalis
  pest or weed control at 1 µg/mL: ≥ 90%
  pest or weed control at 4 µg/mL: ≥ 90%
  pest or weed control at 40 µg/mL: ≥ 90%
Chilo suppressalis; Table 78, 0.625 mg/L, 3 d after administration
  Fatality rate (%, 3 d after administration) 0.625 mg/L: 98%
Chilo suppressalis; Table 78, 1.25 mg/L, 3 d after administration
  Fatality rate (%, 3 d after administration) 1.25 mg/L: 100%
Chilo suppressalis; Table 78, 2.5 mg/L, 3 d after administration
  Fatality rate (%, 3 d after administration) 2.5 mg/L: 100%

## N#CCN(C(=O)c1cccc(NC(=O)c2ccccc2)c1F)c1c(Br)cc(C(F)(C(F)(F)F)C(F)(F)F)cc1Br [Compound 16.321]
armyworm
  pest or weed control at 0.1 µg/mL: ≥ 90%
  pest or weed control at 0.5 µg/mL: ≥ 90%
Plutella xylostella; [12]
  pest or weed control at 0.5 µg/mL: 100%
Plutella xylostella; [13]
  pest or weed control at 1 µg/mL: 100%
Plutella xylostella; [14]
  pest or weed control at 10 µg/mL: 100%
Plutella xylostella; [15]
  pest or weed control at 0.5 µg/mL: ≥ 90%
Plutella xylostella; [16]
  pest or weed control at 1 µg/mL: ≥ 90%
Chilo suppressalis
  pest or weed control at 4 µg/mL: ≥ 90%
  pest or weed control at 40 µg/mL: ≥ 90%
